Test results reported in patent US20060241178A1, “Compositions and methods for treating lung cancer” (priority 2002, published 2006).
Where two headings read alike, the source gives them in different places.

Key:
[1] = test system: alveolar epithelium cells of lung; assay: In situ end-labeling (ISEL/TUNEL) of apoptosis in lung sections; assay type: in vivo, A/J mice
JNK 1 and 2 = assay: Western blot of lung total proteins: JNK phosphorylation; assay type: in vivo, A/J mice; conditions: lung tissue 21 days after B(a)P
p53 = assay: Western blot of lung proteins: p53 expression and phosphorylation; assay type: in vivo, A/J mice; conditions: lungs at termination of the bioassay
[2] = Stability of conjugates in AIN-76A diet (methanol extraction, HPLC); assay type: physicochemical; conditions: stored at 4° C. under nitrogen
Protocol: The ITC conjugates were incorporated (15 μmol/g diet) into AIN-76A diets (5% corn oil) by mixing with dextrose prior to diet preparation. […] After mixing with dextrose, the solvent was removed using a rotary evaporator and further dried using a vacuum pump (2-3 h). Diets were prepared in 1-2 kg batches, and were stored at 4° C. in a container purged with nitrogen. […] Stability was determined by extraction of 0.5 g portions of the diet with 2.5 ml methanol (2×). The methanol extracts were combined and a 1 ml aliquot was filtered using a 0.47 μm syringe filter.

[3] = test system: NNK/B(a)P-induced lung adenomas and adenocarcinomas; conditions: for Adenocarcinoma Incidence (%) / Adenocarcinoma Multiplicity mean ± SD / Adenoma Incidence (%) / Adenoma Multiplicity mean ± SD: preliminary
Protocol: The test compounds were given in the diet on week 21 after beginning of a weekly dose of a mixture of NNK/B(a)P: 3 μmol each (621 μg NNK and 756 μg B(a)P) in 0.1 ml cottonseed oil for eight weeks (a total of 8 doses) (groups 1 to 10); only vehicle (cottonseed oil) for groups 11 to 15. Animals were then given experimental diet for 20 weeks until week 40. Four mice in groups 1, 2, 4, 6, 8, and 10 (see Table 1) were sacrificed on weeks 20, 38, and 40. The bioassay was terminated on week 52. If sufficient numbers of tumors were developed in mice killed on week 40, the bioassay was terminated at week 40. Tumors (adenomas and carcinomas) were quantified by multiplicity and incidence. At sacrifice, livers and lungs were harvested and the tissues rinsed in autoclaved PBS, stored in labeled foil, and snap frozen in liquid nitrogen. These tissues both tumorous and non-tumorous were processed by histology for biomarker studies (TUNEL, PCNA,p53, […] kinases, etc.). Lungs were examined by histology at termination (52 week or 40 week) for adenomas and carcinomas).
In this study, the potential protective effects of ITCs and ITC-NACs against progression of lung adenomas to malignant tumors were investigated. Lung tumors were induced in A/J mice with 3 μmol B(a)P plus 3 μmol NNK (gavage once/wk, 8 wks); mice were maintained on AIN-76A semi-purified diets. […] Diets containing PEITC (phenethyl ITC) or SFN (sulforaphane), each at 3 mmol/kg and 1.5 mmol/kg diet; PEITC-NAC or SFN-NAC at 8 mmol/kg and 4 mmol/kg diet; and NAC at 8 mmol/kg diet were then provided to groups of 28 mice (high dose) or 20 mice (low dose) during weeks 20 to 40 after initiation. Four mice in each high dose treatment group were killed during weeks 28 and 40 to monitor tumor incidence and progression; lung tissues were used for molecular studies. Remaining mice were killed at 40 weeks for histopathological examination. […] To assess molecular events occurring during the treatments, lung RNA of mice treated with B(a)P+NNK/control diet and B(a)P+NNK/PEITC-NAC high dose diet was examined using a Mouse Cancer Pathway Finder Gene Array.

[4] = test system: AP-1 binding activity in A549 cells; assay: EMSA of AP-1 binding activity in A549 cells; assay type: cell-based, human
Protocol: (§1) Cell Lines: The human lung adenocarcinoma cell line A549 was obtained from the American Type Culture Collection (ATCC) (Bethesda, Md.). […] Cells were grown at 37° C. with 5% CO2.
(§2) Reagents: The PEITC was obtained from Aldrich (Milwaukee, Wis.) and its N-acetylcysteine conjugate was synthesized in house by the Organic Synthesis Facility using the method described previously (Kassahun et al., Chem Res Toxicol 1997, 10(11):1228-33). Unless specified otherwise, the A549 cells were treated with 10 or 25 μM of PEITC-NAC. TPA (12-O-tetradecanoylphorbol-13-acetate) was purchased from Sigma (St. Louis, Mo.).
Electrophoretic Mobility Shift Assay (EMSA): Double-stranded oligonucleotides containing the consensus-binding site for AP-1 were purchased commercially (Santa Cruz Biotech). The oligos were labeled with γ-^32P-ATP (6000 Ci/mmol, Armeshem Pharmacia Biotech. Inc Piscataway, N.J.) using polynucleotide kinase (Promega, Madison, Wis.) according to standard procedures. The labeled DNA was incubated with 5 μg of total proteins (as specified in the Results section) for 10 min at room temperature, in the presence of 1 μg of poly d(I)-d(C) oligomer (Roche Molecular Biochemicals, Indianapolis, Ind.) and DNA-binding buffer as described previously (Yang et al., Cell Growth Differ 1993, 4(7):595-602). The complexes were then separated on a 7.5% polyacrylamide gel and autoradiographed.
Proteins Isolation: Cells were incubated in a 37° C. with 5% CO2, followed by mock or treatments specified in the results section. Total proteins were then isolated using RIPA buffer. The protease inhibitors aprotinin (1 μg/ml), leupeptin (1 μg/ml), pepstatin (1 μg/ml), phenylmethylsulfonyl fluoride (0.1 mM) and the phosphatase inhibitor Na3VO4 (1 mM), NaF (1 mM) were added to all buffers. The protein concentrations were determined using the Coomassie Plus Protein Assay Reagent (Pierce, Rockford, Ill.), and aliquots of the proteins were stored at −80° C.

A549 cells = assay: Flow cytometry cell cycle analysis / survival of A549 cells; assay type: cell-based, human
Protocol: as §1, §2
Cell cycle analysis: A549 cells were harvested following 16 and 24 h treatment with various concentrations of PEITC-NAC by fixation in 70% ethanol. Cellular DNA was determined following staining with 1 μg/ml of 4,6-diamidino-2-ephynylindole (DAPI, Molecular Probes, Eugene, Oreg.) dissolved in PBS. Cellular blue fluorescence was measured using the Elite ESP flow cytometer/cell sorter (Coulter, Miami, Fla.) following excitation with a Ni/Cad UV light emitting laser. The data were collected and DNA histograms were deconvoluted using Multicycle software (Phoenix Flow Systems, San Diego, Calif.).

A549/c-jun cells = assay: Apoptosis in A549/c-jun transfectants (morphology, DNA fragmentation, annexin V, PARP Western blot); assay type: cell-based, human; conditions: 25 μM
[5] = high dose (3 or 8 mmol/kg diet)
[6] = low dose (1.5 or 4 mmol/kg diet)

With `CC(=O)N[C@@H](CSC(=S)NCCc1ccccc1)C(=O)O` [PEITC-NAC, N-acetylcysteine Conjugate of phenethyl isothiocyanate] the “increase in apoptosis, non-tumorous lung tissue” value ([1]; after 140 days) was 2.3 fold, the “apoptotic index, fold elevation” value ([1]; lung tissue at 84 days, before tumors appeared) was “approximately 2 fold” and the “JNK 1 (p46) phosphorylation level” value (JNK 1 and 2) was “increase”. The “JNK 2 (p54) phosphorylation” value (JNK 1 and 2) was “only slightly induced”, the “phosphorylation of p53 at Ser15” value (p53) was “stronger increase” and the stability in diet [2] was “stable for at least one month”. The “incidence of adenocarcinoma/squamous carcinoma” value ([3]; 8 mmol/kg diet, initiated control group 60%) was 20%, the “mean numbers of lung adenomas compared with carcinogen control mice” value ([3]; at termination) was “decreases were significant” and the “Adenocarcinoma Incidence (%)” value [3, 5] was 5/31 (16.1%). For the same compound, the “Adenocarcinoma Multiplicity mean ± SD” value [3, 5] was 0.52 ± 1.50, the “Adenoma Incidence (%)” value [3, 5] was 30/31 (96.8%) and the “Adenoma Multiplicity mean ± SD” value ([3]; high dose (PEITC, SFN 3 mmol/kg diet; PEITC-NAC, SFN-NAC, NAC 8 mmol/kg diet)) was 8.19 ± 3.99. The “Adenocarcinoma Incidence (%)” value [3, 6] was 4/19 (21.05%), the “Adenocarcinoma Multiplicity mean ± SD” value [3, 6] was 0.53 ± 1.14 and the “Adenoma Incidence (%)” value [3, 6] was 17/19 (89.47%). The “Adenoma Multiplicity mean ± SD” value ([3]; low dose (PEITC, SFN 1.5 mmol/kg diet; PEITC-NAC, SFN-NAC 4 mmol/kg diet)) was 7.58 ± 3.88, the malignant tumor multiplicity ([3]; low dose groups, initiated control group 2.1) was 0.9 tumors/mouse and the “earliest appearance of AP-1 activation” value ([4]; 10 μM) was 30 min. For the same compound, the “concentration of peak AP-1 binding activity” value ([4]; 24 h treatment) was 10 µM, the “lowest concentration stimulating AP-1 activation” value ([4]; 24 h treatment) was 1 µM and the “cells undergoing apoptosis (sub-G1 peak)” value (A549 cells; 10 μM for 24 h) was 4.5%. The cell survival (A549 cells; 100 μM, 24 h) was “no lung cells appear to survive”, the “PARP 89 kD cleavage fragment” value (A549/c-jun cells; 3 h) was “the most evident cleavage” and the PARP protein (A549/c-jun cells; 24 h) was “maintained a significant levels of intact PARP protein”. For the same compound, the “apoptosis compared with control-vector transfected cells” value (A549/c-jun cells; 24 h) was “enhanced apoptosis”.
